SMILES strings stand for the structures.

The target in test [1] is HcbA3C-His. Kind of test: spectrofluorometric titration. The following applies: oxidized FMN; no NADH stated; cited from earlier work. The test is classed as binding, Nocardioides sp. PD653.
Test [2] deals with HcbA3C-His. Kind of test: NADH oxidation at […] nm, steady-state fit. The test is classed as biochemical, Nocardioides sp. PD653. The settings on record: 1–8 µM FMN, 10–120 µM NADH, 25 nM enzyme; ping-pong; cited from earlier work.
The target of the next test is T1, HcbB3 with HcbB2 (Nocardioides sp. PD653, UniProt A0A1V1W0L1).
T1 sequence (A0A1V1W0L1 1-506): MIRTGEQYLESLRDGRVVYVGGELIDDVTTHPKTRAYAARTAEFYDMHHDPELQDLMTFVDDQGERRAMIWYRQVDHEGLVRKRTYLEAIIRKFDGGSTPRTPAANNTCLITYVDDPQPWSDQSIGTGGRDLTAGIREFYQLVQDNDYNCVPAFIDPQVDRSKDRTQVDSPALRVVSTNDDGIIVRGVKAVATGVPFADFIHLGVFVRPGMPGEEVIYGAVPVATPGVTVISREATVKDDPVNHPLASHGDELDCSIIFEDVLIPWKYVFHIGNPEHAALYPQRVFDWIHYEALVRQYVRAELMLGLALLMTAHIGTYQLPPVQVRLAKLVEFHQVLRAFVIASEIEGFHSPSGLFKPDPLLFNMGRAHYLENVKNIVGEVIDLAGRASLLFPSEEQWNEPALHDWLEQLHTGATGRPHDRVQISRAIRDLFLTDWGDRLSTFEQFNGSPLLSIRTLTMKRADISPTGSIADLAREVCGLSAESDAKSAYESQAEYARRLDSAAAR
Description: PCP dissipation by recombinant E. coli cells. The format is cell-based. The settings on record: co-expressed HcbB2; whole cells.

Consider `Cc1cc2nc3c(=O)[nH]c(=O)nc-3n(C[C@H](O)[C@H](O)[C@H](O)COP(=O)(O)O)c2cc1C` [FMN], for which, on HcbA3C-His [1], the Kd was 750 ± 170 nM. In the test with HcbA3C-His [2], the Km is 4.43 ± 0.69 µM.

Consider `NC(=O)C1=CN([C@@H]2O[C@H](COP(=O)(O)OP(=O)(O)OC[C@H]3O[C@@H](n4cnc5c(N)ncnc54)[C@H](O)[C@@H]3O)[C@@H](O)[C@H]2O)C=CC1` [NADH], for which the Km with HcbA3C-His [2] is 51.7 ± 11.6 µM.

On to `Oc1c(Cl)c(Cl)c(Cl)c(Cl)c1Cl` [PCP], for which the “PCP dissipation by recombinant E. coli cells” value at HcbB3 with HcbB2 was “co-expression of hcbB1 and hcbB3 or hcbB2 and hcbB3 led to significant PCP dissipation activity”.

One may read the Kd as the constant that tells how readily two partners part at equilibrium. One may read the Km as the concentration of substrate that gives half-maximal velocity.

Values taken from paper PMC8640678 (Journal of Pesticide Science, 2021).
